Experimental data from patent US20050227989A1, “Polycyclic thiazoles as potassium ion channel modulators” (ICAgen, Inc., priority 2004, published 2005).
Where two headings read alike, the source gives them in different places.

Assays:
[1] = molecular target: hSK2 (Homo sapiens, UniProt Q9H2S1); assay: 86Rb+ efflux assay for compound activity towards hSK channels; type: cell-based; conditions: read-out: hSK2 Inhibitory Activity
[2] = molecular target: T1, recombinant human SK4 (hIK1 or hKCa4) channels (Homo sapiens, UniProt O15554+P0DP23); conditions: applied to the inside of SK4 channel-expressing membrane patches; cited from earlier work
T1 construct: host or cells: HEK 293

[3] = molecular target: SK2 subtype channels (Rattus norvegicus, UniProt P70604); conditions: patch clamp; cited from earlier work
[4] = 86Rb+ efflux stimulated with calcium ionophore, drug 0.01 to 30 μM in EBSS

| Compound | IC50 [1, 4] | also measured |
| --- | --- | --- |
| O=C1CCCN1c1ccc(Nc2nc(-c3nccs3)cs2)nc1 [1-[6-([2,4′]Bithiazolyl-2′-ylamino)-pyridin-3-yl]-pyrrolidin-2-one] | 0.03 to 0.1 µM |  |
| COC(=O)c1ccc(Nc2nc(-c3ccccn3)cs2)nc1 [6-(4-Pyridin-2-yl-thiazol-2-ylamino)-nicotinic acid methyl ester] | 1 to 30 µM |  |
| Cc1cnc(Nc2nc(-c3ccccn3)cs2)c(Br)c1 [(3-Bromo-5-methyl-pyridin-2-yl)-(4-pyridin-2-yl-thiazol-2-yl)-amine] | 1 to 30 µM |  |
| Cc1cc(C)nc(Nc2nc(-c3ccccn3)cs2)c1 [(4,6-Dimethyl-pyridin-2-yl)-(4-pyridin-2-yl-thiazol-2-yl)-amine] | 1 to 30 µM |  |
| Cc1ccnc(Nc2nc(-c3cnccn3)cs2)c1 [(4-Methyl-pyridin-2-yl)-(4-pyrazin-2-yl-thiazol-2-yl)-amine] | 0.03 to 0.1 µM |  |
| FC(F)(F)c1ccc(Nc2nc(-c3ccccn3)cs2)nc1 [(4-Pyridin-2-yl-thiazol-2-yl)-(5-trifluoromethyl-pyridin-2-yl)-amine] | 1 to 30 µM |  |
| c1ccc(-c2csc(Nc3ncccn3)n2)nc1 [(4-Pyridin-2-yl-thiazol-2-yl)-pyrimidin-2-yl-amine] |  | IC50 [1]: 1 to 30 µM |
| Brc1sc(Nc2ccccn2)nc1-c1ccccn1 [(5-Bromo-4-pyridin-2-yl-thiazol-2-yl)-pyridin-2-yl-amine] | 1 to 30 µM |  |
| Brc1ccc(Nc2nc(-c3ccccn3)cs2)nc1 [(5-Bromo-pyridin-2-yl)-(4-pyridin-2-yl-thiazol-2-yl)-amine] | 1 to 30 µM |  |
| Cc1ccnc(Nc2nc(-c3ccccn3)c(Cl)s2)c1 [(5-Chloro-4-pyridin-2-yl-thiazol-2-yl)-(4-methyl-pyridin-2-yl)-amine] | 0.1 to 1 µM |  |
| CCCCCCc1ccc(Nc2nc(-c3ccccn3)cs2)nc1 [(5-Hexyl-pyridin-2-yl)-(4-pyridin-2-yl-thiazol-2-yl)-amine] | 1 to 30 µM |  |
| Cc1cc(I)cnc1Nc1nc(-c2ccccn2)cs1 [(5-Iodo-3-methyl-pyridin-2-yl)-(4-pyridin-2-yl-thiazol-2-yl)-amine] | 0.1 to 1 µM |  |
| Cc1cc(Nc2nc(-c3ccccn3)cs2)ncc1I [(5-Iodo-4-methyl-pyridin-2-yl)-(4-pyridin-2-yl-thiazol-2-yl)-amine] | 0.1 to 1 µM |  |
| COc1sc(Nc2ccccn2)nc1-c1ccccn1 [(5-Methoxy-4-pyridin-2-yl-thiazol-2-yl)-pyridin-2-yl-amine] | 1 to 30 µM |  |
| CSc1sc(Nc2ccccn2)nc1-c1ccccn1 [(5-Methylsulfanyl-4-pyridin-2-yl-thiazol-2-yl)-pyridin-2-yl-amine] | 1 to 30 µM |  |
| c1ccc(-c2ccc(Nc3nc(-c4ccccn4)cs3)nc2)cc1 [(5-Phenyl-pyridin-2-yl)-(4-pyridin-2-yl-thiazol-2-yl)-amine] | 1 to 30 µM |  |
| CC(C)(C)c1ccc(Nc2nc(-c3ccccn3)cs2)nc1 [(5-tert-Butyl-pyridin-2-yl)-(4-pyridin-2-yl-thiazol-2-yl)-amine] | 1 to 30 µM |  |
| [Ba+2] [Barium] |  | activation of SK4 channels [2]: activated SK4 channels in a concentration-dependent manner |
| c1ccc(Nc2csc(Nc3ccccn3)n2)nc1 [N^2,N^4-Di-pyridin-2-yl-thiazole-2,4-diamine] | 1 to 30 µM |  |
| c1ccc(Nc2nc(-c3ccccn3)cs2)nc1 [Pyridin-2-yl-(4-pyridin-2-yl-thiazol-2-yl)-amine] | < 0.03 µM |  |

| Compound | IC50 [1, 4] | also measured |
| --- | --- | --- |
| Brc1ccc(Nc2nc(-c3nccs3)cs2)nc1 [[2,4′]Bithiazolyl-2′-yl-(5-bromo-pyridin-2-yl)-amine] | 1 to 30 µM |  |
| Clc1ccc(Nc2nc(-c3nccs3)cs2)nc1 [[2,4′]Bithiazolyl-2′-yl-(5-chloro-pyridin-2-yl)-amine] | 1 to 30 µM |  |
| CC(C)c1ccc(Nc2nc(-c3nccs3)cs2)nc1 [[2,4′]Bithiazolyl-2′-yl-(5-isopropyl-pyridin-2-yl)-amine] | 1 to 30 µM |  |
| c1csc(-c2csc(Nc3ccc(N4CCOCC4)cn3)n2)n1 [[2,4′]Bithiazolyl-2′-yl-(5-morpholin-4-yl-pyridin-2-yl)-amine] | 0.1 to 1 µM |  |
| c1csc(-c2ccc(Nc3nc(-c4nccs4)cs3)nc2)c1 [[2,4′]Bithiazolyl-2′-yl-(5-thiophen-2-yl-pyridin-2-yl)-amine] | 1 to 30 µM |  |
| CN1CCN(c2ccc(Nc3nc(-c4nccs4)cs3)nc2)CC1 [[2,4′]Bithiazolyl-2′-yl-[5-(4-methyl-piperazin-1-yl)-pyridin-2-yl]-amine] | 1 to 30 µM |  |
| c1cncc(-c2ccc(Nc3nc(-c4nccs4)cs3)nc2)c1 [[3,3′]Bipyridinyl-6-yl-[2,4′]bithiazolyl-2′-yl-amine] | 1 to 30 µM |  |
| Cc1ccnc(Nc2nc(-c3c(C)nc4cc(C)ccn34)cs2)c1 [[4-(2,7-Dimethyl-imidazo[1,2-a]pyridin-3-yl)-thiazol-2-yl]-(4-methyl-pyridin-2-yl)-amine] | 1 to 30 µM |  |
| Cc1ccnc(Nc2nc(-c3c(C)nc4ncccn34)cs2)c1 [[4-(2-Methyl-imidazo[1,2-a]pyrimidin-3-yl)-thiazol-2-yl]-(4-methyl-pyridin-2-yl)-amine] | 1 to 30 µM |  |
| CN(C)CCC=C1c2ccccc2CCc2ccccc21 [amitriptyline] |  | block of SK2 channel currents [3]: block SK2 channel currents with micromolar affinity |
| [Cd] [cadmium] |  | activation of SK4 channels [2]: activated SK4 channels in a concentration-dependent manner |
| [Ca+2] [calcium] |  | activation of SK4 channels [2]: activated SK4 channels in a concentration-dependent manner |
| [Co+2] [cobalt] |  | activation of SK4 channels [2]: did not activate |
| [Fe] [iron] |  | activation of SK4 channels [2]: did not activate |
| [Pb+2] [lead] |  | activation of SK4 channels [2]: activated SK4 channels in a concentration-dependent manner |
| [Mg+2] [magnesium] |  | activation of SK4 channels [2]: did not activate |
| [Sr+2] [strontium] |  | activation of SK4 channels [2]: activated SK4 channels in a concentration-dependent manner |
| [Zn+2] [zinc] |  | activation of SK4 channels [2]: did not activate |
| [(4-Methyl-pyridin-2-yl)-(4-pyridin-2-yl-thiazol-2-yl)-amine]2 Fe(II) nH2ClO4 Complex | < 0.03 µM |  |
| [(4-Methyl-pyridin-2-yl)-(4-pyridin-2-yl-thiazol-2-yl)-amine]2 Zn(II) nHCl Complex | < 0.03 µM |  |

More lines, main results first:

| IC50 [1, 4] | Compound | also measured |
| --- | --- | --- |
| < 0.03 µM | O=C1CCCN1c1ccc(Nc2nc(-c3cnccn3)cs2)nc1 [1-[6-(4-Pyrazin-2-yl-thiazol-2-ylamino)-pyridin-3-yl]-pyrrolidin-2-one] |  |
| 1 to 30 µM | CN1CCN(c2ccc(Nc3nc(-c4cnccn4)cs3)nc2)C(=O)C1 [4-Methyl-1-[6-(4-pyrazin-2-yl-thiazol-2-ylamino)-pyridin-3-yl]-piperazin-2-one] |  |
| 1 to 30 µM | CN1CCN(c2ccc(Nc3nc(-c4ccccn4)cs3)nc2)C(=O)C1 [4-Methyl-1-[6-(4-pyridin-2-yl-thiazol-2-ylamino)-pyridin-3-yl]-piperazin-2-one] |  |
| 0.1 to 1 µM | c1ccc(-c2csc(Nc3nc4ccccc4[nH]3)n2)nc1 [(1H-Benzoimidazol-2-yl)-(4-pyridin-2-yl-thiazol-2-yl)-amine] |  |
| 0.03 to 0.1 µM | CC1CCN(c2ccc(Nc3nc(-c4ccccn4)cs3)nc2)CC1 [(4-Methyl-3,4,5,6-tetrahydro-2H-[1,3′]bipyridinyl-6′-yl)-(4-pyridin-2-yl-thiazol-2-yl)-amine] |  |
| 0.03 to 0.1 µM | Cc1ccnc(Nc2nc(-c3cc(C)ccn3)cs2)c1 [(4-Methyl-pyridin-2-yl)-[4-(4-methyl-pyridin-2-yl)-thiazol-2-yl]-amine] |  |
| 1 to 30 µM | c1ccc(-c2csc(Nc3nccs3)n2)nc1 [(4-Pyridin-2-yl-thiazol-2-yl)-thiazol-2-yl-amine] |  |
| 1 to 30 µM | Fc1ccc(Nc2nc(-c3ccccn3)cs2)nc1 [(5-Fluoro-pyridin-2-yl)-(4-pyridin-2-yl-thiazol-2-yl)-amine] |  |
| 0.1 to 1 µM | C=C(C)c1ccc(Nc2nc(-c3cnccn3)cs2)nc1 [(5-Isopropenyl-pyridin-2-yl)-(4-pyrazin-2-yl-thiazol-2-yl)-amine] |  |
| 1 to 30 µM | CC(C)c1ccc(Nc2nc(-c3cnccn3)cs2)nc1 [(5-Isopropyl-pyridin-2-yl)-(4-pyrazin-2-yl-thiazol-2-yl)-amine] |  |
| 0.03 to 0.1 µM | CC(C)c1ccc(Nc2nc(-c3ccccn3)cs2)nc1 [(5-Isopropyl-pyridin-2-yl)-(4-pyridin-2-yl-thiazol-2-yl)-amine] |  |
| < 0.03 µM | Cc1sc(Nc2ccccn2)nc1-c1ccccn1 [(5-Methyl-4-pyridin-2-yl-thiazol-2-yl)-pyridin-2-yl-amine] |  |
| 0.03 to 0.1 µM | Cc1ccc(Nc2nc(-c3cnccn3)cs2)nc1 [(5-Methyl-pyridin-2-yl)-(4-pyrazin-2-yl-thiazol-2-yl)-amine] |  |
| 0.03 to 0.1 µM | c1ccc(-c2csc(Nc3ccc(N4CCOCC4)cn3)n2)nc1 [(5-Morpholin-4-yl-pyridin-2-yl)-(4-pyridin-2-yl-thiazol-2-yl)-amine] |  |
| 0.03 to 0.1 µM | Nc1ccc(Nc2nc(-c3nccs3)cs2)nc1 [N^2-[2,4′]Bithiazolyl-2′-yl-pyridine-2,5-diamine] |  |
| 1 to 30 µM | c1ccc(Nc2nc(-c3cccs3)cs2)nc1 [Pyridin-2-yl-(4-thiophen-2-yl-thiazol-2-yl)-amine] |  |
| 0.1 to 1 µM | Cc1ccnc(Nc2nc(-c3nccs3)cs2)c1 [[2,4′]Bithiazolyl-2′-yl-(4-methyl-pyridin-2-yl)-amine] |  |
| 1 to 30 µM | C=C(C)c1ccc(Nc2nc(-c3nccs3)cs2)nc1 [[2,4′]Bithiazolyl-2′-yl-(5-isopropenyl-pyridin-2-yl)-amine] |  |
| 0.1 to 1 µM | COc1ccc(Nc2nc(-c3nccs3)cs2)nc1 [[2,4′]Bithiazolyl-2′-yl-(5-methoxy-pyridin-2-yl)-amine] |  |
| 1 to 30 µM | O=[N+]([O-])c1ccc(Nc2nc(-c3nccs3)cs2)nc1 [[2,4′]Bithiazolyl-2′-yl-(5-nitro-pyridin-2-yl)-amine] |  |
| 1 to 30 µM | Cc1ccnc(Nc2nc(-c3c(C)nc4ccccn34)cs2)c1 [[4-(2-Methyl-imidazo[1,2-a]pyridin-3-yl)-thiazol-2-yl]-(4-methyl-pyridin-2-yl)-amine] |  |
